Reference: patent publication US20040115804A1, “Cell system for generating somatic cells” (priority 2002, published 2004)

What was measured:
[1] = tested on: umbilical mesenchymal cells; experiment: Transformation of umbilical mesenchymal cells into neurons with BME (NF and NeuN immunostaining); assay type: cell-based, human; conditions: 2 mM BME, 72 hours
Excerpt: Neurofilament (NF) is the major cytoskeleton in neurons, which is responsible for adjusting the size, appearance and diameter of dendrites of neurons. Only neurons at the late developmental stage or mature neurons express NF. Immunostaining for NF is utilized to recognize neurons at the late stage.
Neuron-specific nuclear protein (NeuN) is a specific protein existing in the nucleus of neurons in the central nervous system of vertebrates. NeuN binds to DNA in vitro. It is known that NeuN appears earlier than NF during the development of neurons. Therefore, immunostaining for NeuN is utilized to identify neurons at the early stage of transformation.
Umbilical mesenchymal cells obtained in Example 1 were cultured in 10% FBS-DMEM for 72 hours. Two mM BME was added to the culture and the cells continued to be cultured for 72 hours.

BMSCs = conditions: in vitro culture of BMSCs; cited from earlier work
[2] = unsuitable for use in human bodies; cited from earlier work
[3] = tested on: haematopoietic stem cells of umbilical cord blood; conditions: cultured in 0.001% of β-Mercaptoethanol; cited from earlier work
[4] = tested on: umbilical mesenchymal cells; experiment: Cardiac troponin I / F-actin immunocytochemistry after cardiac differentiation; assay type: cell-based, human; conditions: 3 μM 5-azacytidine for 24 hours, then growing medium 1-3 weeks
Experimental: Umbilical mesenchymal cells obtained in Example 1 were cultured in a cell growing medium of DMEM supplemented with about 4.5 g/L of glucose and about 10% FBS. After the cells have attached to the bottom of the cell culture plate, the cell growing medium was then replaced by a cell differentiating medium, which was prepared by supplementing the cell growing medium with 3 μM 5-azacytidine as a cell differentiating factor. Alternatively, the cell differentiating factor may be directly added to the culture.
The umbilical mesenchymal cells were cultured in the cell differentiating medium for 24 hours. The cell differentiating medium was then replaced by the cell growing medium to prevent intoxication of the cells caused by the long exposure to 5-azacytidine. The differentiated cells were further maintained in the cell growing medium for about 1-3 weeks to ensure the viability and optimal differentiation of the cells. The culture medium was replaced with fresh medium every three days. […]
Next, secondary antibodies conjugated to fluorescence or any visible dyes readily detectable by an optical instrument such as a confocal laser scanning microscope, a fluorescence microscope, or an optical microscope, Rhodamine (TRITC)-conjugated AffiniPure Donkey Anti-Goat IgG (supplied by Jackson ImmunoResearch Lab) were added at a 1:100 dilution to bind the host species of the primary antibodies. […]

[5] = tested on: bone marrow stromal cells; conditions: bone marrow stromal cells treated with 5-azacytidine; cited from earlier work

SMILES	NF expression (immunostaining) [1]	NeuN expression (immunostaining) [1]	cultured BMSCs induced to differentiate into neurons (BMSCs)	toxicity [2]	transformation of cord blood haematopoietic stem cells [3]	F-actin expression, cell attachment pattern [4]	C-troponin I expression ([4]; compared to untreated cells)	ultrastructure by electron microscopy [5]
OCCS [BME, β-mercaptoethanol]	expressed NF	expressed NeuN	about 80%	toxic for proteins	transformed into precursors of neural cells			
Nc1ncn([C@@H]2O[C@H](CO)[C@@H](O)[C@H]2O)c(=O)n1 [cell differentiating factor, 5-azacytidine]						specific cell attachment pattern similar to that of the cardiomyocytes or cardiovascular cells	significant expression of C-troponin I	cardiomyocyte-like ultrastructure
